The experiment has as its system L1210 leukemia ip in BDF1 mice, survival T/C. The experiment can be described thus: NCI In Vivo Anticancer Drug Screen. Data for tumor model L1210 Leukemia (intraperitoneal) in B6D2F1 (BDF1) mice. Conditions: endpoint: mean survival time, schedule: Q04DX002 (ip), higher = longer survival. A digest of the protocol:
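Each compound was tested against a transplantable tumor grown in mice. The endpoint was survival, with treated animals benchmarked against vehicle controls as a simple ratio.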

These results are taken from PubChem BioAssay AID248 (DTP/NCI, 2004).

Toxic doses and inconclusive results are not listed.

For `COc1ccc(/C=C2/CCOC2=O)cc1`, the T/C (dose: 12.5 mg/kg/injection, vehicle: Klucel (hydroxypropylcellulose) (HPC)) was 99 % of control.
In the case of `CNCCNCC(Cc1ccccc1)c1ccccc1` (centres undefined), the T/C was 107 % of control (dose: 25.0 mg/kg/injection, vehicle: saline); 97 % of control (dose: 50.0 mg/kg/injection, vehicle: saline); 97 % of control (dose: 100.0 mg/kg/injection, vehicle: saline).
